Source: US20170306409A1, “CANCER PATIENT SELECTION FOR ADMINISTRATION OF WNT SIGNALING INHIBITORS USING RNF43 MUTATION STATUS” (NOVARTIS AG, priority 2012, published 2017)

Key:
Type in all cases: cell-based, human
[1] = test system: STF Wnt reporter, YAPC-STF cells; experiment: SuperTOPFlash (STF) luciferase reporter assay; conditions: absence of exogenous Wnt3a, LGK974 or IWP-2
Experimental: For the luciferase reporter assay, YAPC-STF reporter cells were transfected with siRNA and treated with Wnt3a conditioned medium or compound where applicable. STF luciferase assays were performed using BrightGlo Luciferase Assay kits (Promega) according to the manufacturer's instructions.
To construct pancreatic cell lines expressing STF reporter, HEK293 cells were grown in medium recommended by ATCC supplemented with 10% FBS. Retrovirus or lentivirus was produced from HEK293 cells by standard virus packaging procedure using FuGENE 6 (Roche) transfection reagent. Pancreatic cell lines expressing STF reporter, RNF43 constructs, or DOX-inducible β-catenin shRNA were generated by viral infection and drug selection.
Depletion of RNF43 induces Dvl phosphorylation and β-catenin stabilization. […] RNF43 siRNA-induced STF activity in the absence of exogenous Wnt3a is inhibited by LGK974 and a previously known Porcupine inhibitor IWP-2. Chen B et al. (2009) Nat. Chem. Biol. 5(2):100-7. See, FIG. 3(b), showing that this activity is dependent on the expression of endogenous Wnt proteins.

RNF43 mRNA, YAPC cells = experiment: quantitative RT-PCR gene expression analysis; conditions: 3 μM of IWP2
Experimental: FIG. 4(a) is a bar graph showing that the depletion of β-catenin decreases mRNA level of AXIN2 and RNF43. Cells were treated with siRNA, and relative mRNA levels of indicated genes were analyzed by quantitative RT-PCR. […] YAPC cells were treated with 3 μM of IWP2 or 1 μM of LGK974, and subjected to gene expression analysis by quantitative RT-PCR.
(§1) For reverse transcription and quantitative PCR (qPCR), total RNA was extracted from cells or tumors using the RNeasy Plus Mini Kit (Qiagen). 1 μg of RNA were reverse transcribed with Taqman Reverse Transcription Reagents (Applied Biosystems) according to the manufacturer's instruction. Quantitative PCR was performed in 12 μl reactions consisting of 0.6 μl of 20× Taqman probe and PCR primer mix, 6 μl 2× Taqman FAST Advanced Master Mix (Applied Biosystems), and 5.4 μl diluted cDNA template. The thermocycling conditions utilized were 20 seconds at 95° C., followed by 40 cycles of 1 second at 95° C. and 20 seconds at 60° C. All experiments were performed in quadruplicates. Gene expression analysis was performed using the comparative ΔΔCT method and normalized with the housekeeping gene GUSB or 18S. The Taqman probes were purchased from Applied Biosystems.
Consistent with this observation, treatment of Porcupine inhibitor IWP2 or LGK974 increased the cell surface level of Frizzled and decreased the mRNA levels of AXIN2 and RNF43. See, FIG. 4(b). […]

[2] = test system: cell surface Frizzled (FZD), YAPC cells; experiment: flow cytometry of membrane Frizzled (pan-Frizzled antibody 18R5)
Experimental: YAPC cells were transfected with indicated siRNA, and membrane levels of Frizzled were analyzed by flowcytometry using pan-Frizzled antibody 18R5.
For flow cytometric analysis, cells were harvested using trypsin-free cell dissociation buffer (Invitrogen) and resuspended in FACS buffer (PBS with 1% BSA and 0.02% sodium azide). After blocking, cells were incubated with anti-pan-Frizzled (18R5) antibody for 1 hour at 4° C., followed by incubation with Allophycocyanin (APC)-conjugated goat anti-human IgG secondary antibody. After extensive washes using FACS buffer, cells were stained with propidium iodide (PI) and subjected to multi-channel analysis using BD LSR II flow cytometer.
(§2) Consistent with this observation, treatment of Porcupine inhibitor IWP2 or LGK974 increased the cell surface level of Frizzled and decreased the mRNA levels of AXIN2 and RNF43. See, FIG. 4(b). […] YAPC cells were treated with 3 μM of IWP-2 or 1 μM of LGK974, and subjected to flowcytometry analysis for membrane Frizzled expression.

Axin2, YAPC = experiment: Axin2 qPCR assay (pathway inhibition); conditions: YAPC cells; 3 μM of IWP2
Experimental: as §1, §2

Cc1ccc2nc(NC(=O)CSc3nc4c(c(=O)n3-c3ccccc3)SCC4)sc2c1 [IWP-2, reference compound]
RNF43 siRNA-induced STF activity [1]: inhibited
mRNA level of RNF43 (RNF43 mRNA, YAPC cells): decreased
Median FZD intensity in FACS ([2]; 3 μM of IWP-2, DMSO 721): 1754
Median FZD intensity in FACS ([2]; 3 μM of IWP-2, DMSO 721, listed as IWP2): increased
mRNA level of AXIN2 (Axin2, YAPC): decreased
